{"source": "patent US20240238232A1", "about": "“COMPOSITIONS AND METHODS FOR THE REDUCTION OR TREATMENT OF INSULIN RESISTANCE AND METABOLIC CONDITIONS” (AXCELLA HEALTH INC., priority 2018, published 2024)", "type_in_all_cases": "in vivo", "key": {"[1]": {"tested_on": "FATZO mouse model", "assay": "Blood glucose in FATZO mice on WDF, Example 5", "settings": "oral gavage 4 weeks, LIVRQNAC 3000 mg/kg, LIVRQNAC+G 3,885 mg/kg, LRQNAC 2,469 mg/kg BID, OCA QD", "from_the_text": "(§1) NASH was induced in 60 male FATZO mice by a western diet (Research Diet #D12079B; fat 40% kcal, protein 17% kcal, carbohydrate 43% kcal) supplemented with 500 fructose in the drinking water (WDF) during a 16 week induction phase. Diets and water were available ad libitum. Littermate control male FATZO mice fed with a control diet (n=6, Purina #5008; fat 17% kcal, protein 27% kcal, carbohydrate 56% kcal) and sterile water were set up for control purpose. Mice were housed in plastic cages with microisolator. Sterilized bedding was replaced once a week. Mice were housed three per cage and maintained on a twelve hour light cycle throughout study duration. Room temperature was monitored daily and maintained at 22-25° C. Body weight was recorded every week during the induction phase.\nFollowing 16 weeks diet induction, 6 mice remained on control diet (group 1, Control) while 60 induced mice were randomized on body weight and plasma glucose (fed) for assignment to the following treatments. FATZO mice were administered with test articles starting at 16 weeks post western diet NASH induction for 4 weeks. […]\n(§2) […], […]+G, LRQNAC, OCA and Vehicle were administered by oral gavage at a volume of 10 mL/kg throughout the study. Dosages were calculated by daily body weight. […]\n(§3) The viability, clinical signs and behavior were monitored daily. Body weight was recorded daily during the dosing period. […]"}, "[2]": {"tested_on": "FATZO mouse model", "assay": "Body weight, liver weight and clinical observations in FATZO mice on WDF, Example 5", "settings": "oral gavage 4 weeks, LIVRQNAC 3000 mg/kg, LIVRQNAC+G 3,885 mg/kg, LRQNAC 2,469 mg/kg BID, OCA QD", "from_the_text": "NASH was induced in 60 male FATZO mice by a western diet (Research Diet #D12079B; fat 40% kcal, protein 17% kcal, carbohydrate 43% kcal) supplemented with 500 fructose in the drinking water (WDF) during a 16 week induction phase. Diets and water were available ad libitum. Littermate control male FATZO mice fed with a control diet (n=6, Purina #5008; fat 17% kcal, protein 27% kcal, carbohydrate 56% kcal) and sterile water were set up for control purpose. Mice were housed in plastic cages with microisolator. Sterilized bedding was replaced once a week. Mice were housed three per cage and maintained on a twelve hour light cycle throughout study duration. Room temperature was monitored daily and maintained at 22-25° C. Body weight was recorded every week during the induction phase. […]\nas §2, §3\nAnimals were anesthetized with CO2 inhalation and exsanguinated via cardiac puncture for euthanasia. […] Organ weights (total liver, gonadal fat pads) were recorded. […]"}, "[3]": {"tested_on": "FATZO mouse model", "assay": "Liver triglyceride and cholesterol content in FATZO mice on WDF, Example 5", "settings": "4 weeks", "from_the_text": "as §1\nFollowing 16 weeks diet induction, 6 mice remained on control diet (group 1, Control) while 60 induced mice were randomized on body weight and plasma glucose (fed) for assignment to the following treatments. FATZO mice were administered with test articles starting at 16 weeks post western diet NASH induction for 4 weeks. Test articles were administered by oral gavage. Animals were euthanized at 20 weeks post western diet NASH induction, and tissues were harvested for analysis.\n[…], […]+G, LRQNAC, OCA and Vehicle were administered by oral gavage at a volume of 10 mL/kg throughout the study. Dosages were calculated by daily body weight. […], […]+G, LRQNAC, and Vehicle were administered twice per day (BID), while OCA was administered once a day (QD) in the morning. Mice receiving OCA once per day (QD), and one vehicle QD. Doses were administered by oral gavage at 0700 and 1800 by oral gavage for 4 weeks.\nLiver triglyceride and cholesterol content were similarly elevated after WDF feeding compared to vehicle treated animals fed control diet (liver triglyceridep<00.0040; liver cholesterol: p<0.0001). Among animals fed WDF, there were no significant differences in liver triglyceride (p<0.1206) when compared to vehicle for any treatment group. […]"}, "[4]": {"settings": "oral, LIVRQNAC + G 3885 mg/kg, LRQNAC 2469 mg/kg, OCA 30 mg/kg/day"}}, "data": [{"smiles": "CC[C@H]1[C@@H](O)[C@@H]2[C@H](CC[C@]3(C)[C@@H]([C@H](C)CCC(=O)O)CC[C@@H]23)[C@@]2(C)CC[C@@H](O)C[C@@H]12", "note": "[OCA, 6α-ethyl-chenodeoxycholic acid]", "values": [{"measurement": "Average blood glucose over the dosing period", "setting": "[1]", "value": "169.7 ± 6.3", "unit": "mg/dL"}, {"measurement": "Liver weight (% body weight)", "setting": "[2]", "value": "6.81±0.2", "unit": "% body weight"}, {"measurement": "Reduction of liver cholesterol content compared to vehicle", "setting": "[3]", "value": 32, "unit": "%"}, {"measurement": "Liver Cholesterol", "setting": "[3]; [4]", "value": "5.63 ± 0.495"}, {"measurement": "Liver Triglyceride", "setting": "[3]; [4]", "value": "49.81 ± 1.63"}]}]}
